# Tests used:
# Assay in all cases: Spot-on-lawn inhibition assay
# Type in all cases: cell-based
# Bacillus cereus = tested on: Bacillus cereus; parameters: key: “-“ = No inhibition; “+” = Unclear zone; “++” = zone < 1 cm; “+++”= zone > 1 cm; settings: 5 µl at 1 mg/ml, n=3
# Procedure: (§1) A semi-quantitative spot-on-lawn inhibitory assay was performed on 51 bacterial indicator strains (Table S1) to determine the bacteriocins inhibition spectra. Overnight cultures were diluted 1:100 in BHI soft agar and distributed on BHI agar plates. Once solidified, bacteriocins with various concentrations were applied on designated spots. The plates were incubated at appropriate temperature O/N and inhibition zones were measured the following day. To determine minimal inhibitory concentration (MIC50) of H1 against clinical S. haemolyticus isolates (Table S2), as well as strains heterologously expressing RseP (Table S4), the microtiterplate antimicrobial assay was performed as previously described[41],[79]. MIC50 was defined as the minimal bacteriocin concentration needs to inhibit the growth of a bacterial strain by at least 50%.
# S. aureus [1] = tested on: S. aureus; parameters: key: “-“ = No inhibition; “+” = Unclear zone; “++” = zone < 1 cm; “+++”= zone > 1 cm; settings: 5 µl at 1 mg/ml, n=3
# Procedure: as §1
# C. piscicola = tested on: C. piscicola; parameters: key: “-“ = No inhibition; “+” = Unclear zone; “++” = zone < 1 cm; “+++”= zone > 1 cm; settings: C. piscicola LMG 2332; 5 µl at 1 mg/ml; n=3
# Procedure: as §1
# [2] = tested on: Staphylococcus haemolyticus strains; parameters: key to Mutants observed after 24 h (mark *): *Mutants observed after 24 h; key to Average inhibition score: –: “−” = No inhibition; “+” = Unclear zone; “++” = zone < 1 cm; “+++” = zone ≥ 1 cm; settings: for Mutants observed after 24 h (mark *): spot of 5 μl at 1 mg/ml
# Procedure: as §1
# S. epidermidis = tested on: S. epidermidis; parameters: key: –: “−” = No inhibition; “+” = Unclear zone; “++” = zone < 1 cm; “+++” = zone ≥ 1 cm; settings: S. epidermidis LMG 3522; 5 µl at 1 mg/ml; n=3
# Procedure: as §1
# Staphylococcus arlettae = tested on: Staphylococcus arlettae; parameters: key: –: “−” = No inhibition; “+” = Unclear zone; “++” = zone < 1 cm; “+++” = zone ≥ 1 cm; settings: Staphylococcus arlettae LMG 4134; 5 µl at 1 mg/ml; n=3
# Procedure: as §1
# S. aureus [3] = tested on: S. aureus; parameters: key: –: “−” = No inhibition; “+” = Unclear zone; “++” = zone < 1 cm; “+++” = zone ≥ 1 cm; settings: 5 µl at 1 mg/ml, n=3
# Procedure: as §1
# L. monocytogenes = L. monocytogenes EDGe; 5 µl at 1 mg/ml; n=3
# Procedure: as §1
sequence,measurement,setting,value
"MLAKIKAMIKKFPNPYTLAAKLTTYEINWYKQQYGRYPWERPVA [EJ97, enterocin EJ97]",Average inhibition score,Bacillus cereus; B. cereus LMG 2711,-
same,Average inhibition score,Bacillus cereus; B. cereus LMG 2731,-
same,Average inhibition score,Bacillus cereus; Bacillus cereus LMG 2805,-
same,Average inhibition score,S. aureus [1]; S. aureus ATCC14458,-
same,Average inhibition score,S. aureus [1]; S. aureus LMG 3325,-
same,Average inhibition score,S. aureus [1]; S. aureus LMG 3328,-
same,Average inhibition score,S. aureus [1]; S. aureus LMG 3329,-
same,Average inhibition score,C. piscicola,-
same,Average inhibition score,"[2]; S. haemolyticus 4068, 5 μl at 1 mg/ml, n = 3",++ (“++” = zone < 1 cm)
same,Mutants observed after 24 h (mark *),[2]; S. haemolyticus 4068,*
same,Average inhibition score,"[2]; S. haemolyticus 4069, 5 μl at 1 mg/ml, n = 3",++ (“++” = zone < 1 cm)
same,Mutants observed after 24 h (mark *),[2]; S. haemolyticus 4069,*
same,Average inhibition score,"[2]; S. haemolyticus 4070, 5 μl at 1 mg/ml, n = 3",++ (“++” = zone < 1 cm)
same,Mutants observed after 24 h (mark *),[2]; S. haemolyticus 4070,*
same,Average inhibition score,"[2]; S. haemolyticus 4071, 5 μl at 1 mg/ml, n = 3",++ (“++” = zone < 1 cm)
same,Mutants observed after 24 h (mark *),[2]; S. haemolyticus 4071,*
same,Average inhibition score,"[2]; S. haemolyticus 4072, 5 μl at 1 mg/ml, n = 3",++ (“++” = zone < 1 cm)
same,Mutants observed after 24 h (mark *),[2]; S. haemolyticus 4072,*
same,Average inhibition score,"[2]; S. haemolyticus 4073, 5 μl at 1 mg/ml, n = 3",++ (“++” = zone < 1 cm)
same,Mutants observed after 24 h (mark *),[2]; S. haemolyticus 4073,*
same,Average inhibition score,"[2]; S. haemolyticus 7067_4_21, 5 μl at 1 mg/ml, n = 3",++ (“++” = zone < 1 cm)
same,Mutants observed after 24 h (mark *),[2]; S. haemolyticus 7067_4_21,*
same,Average inhibition score,"[2]; S. haemolyticus 7067_4_28, 5 μl at 1 mg/ml, n = 3",+++ (“+++” = zone ≥ 1 cm)
same,Mutants observed after 24 h (mark *),[2]; S. haemolyticus 7067_4_28,*
same,Average inhibition score,"[2]; S. haemolyticus 7067_4_39, 5 μl at 1 mg/ml, n = 3",+
same,Average inhibition score,"[2]; S. haemolyticus 7067_4_48, 5 μl at 1 mg/ml, n = 3",+
same,Average inhibition score,"[2]; S. haemolyticus 7067_4_49, 5 μl at 1 mg/ml, n = 3",++ (“++” = zone < 1 cm)
same,Mutants observed after 24 h (mark *),[2]; S. haemolyticus 7067_4_49,*
same,Average inhibition score,"[2]; S. haemolyticus 7067_4_56, 5 μl at 1 mg/ml, n = 3",++ (“++” = zone < 1 cm)
same,Mutants observed after 24 h (mark *),[2]; S. haemolyticus 7067_4_56,*
same,Average inhibition score,"[2]; S. haemolyticus 7067_4_60, 5 μl at 1 mg/ml, n = 3",+++ (“+++” = zone ≥ 1 cm)
same,Mutants observed after 24 h (mark *),[2]; S. haemolyticus 7067_4_60,*
same,Average inhibition score,"[2]; S. haemolyticus 7067_4_66, 5 μl at 1 mg/ml, n = 3",++ (“++” = zone < 1 cm)
same,Mutants observed after 24 h (mark *),[2]; S. haemolyticus 7067_4_66,*
same,Average inhibition score,"[2]; S. haemolyticus 7067_4_67, 5 μl at 1 mg/ml, n = 3",++ (“++” = zone < 1 cm)
same,Mutants observed after 24 h (mark *),[2]; S. haemolyticus 7067_4_67,*
same,Average inhibition score,"[2]; S. haemolyticus 7067_4_71, 5 μl at 1 mg/ml, n = 3",+++ (“+++” = zone ≥ 1 cm)
same,Mutants observed after 24 h (mark *),[2]; S. haemolyticus 7067_4_71,*
same,Average inhibition score,"[2]; S. haemolyticus 7067_4_84, 5 μl at 1 mg/ml, n = 3",++ (“++” = zone < 1 cm)
same,Mutants observed after 24 h (mark *),[2]; S. haemolyticus 7067_4_84,*
same,Average inhibition score,"[2]; S. haemolyticus 7068_7_63, 5 μl at 1 mg/ml, n = 3",++ (“++” = zone < 1 cm)
same,Mutants observed after 24 h (mark *),[2]; S. haemolyticus 7068_7_63,*
same,Average inhibition score,"[2]; S. haemolyticus LMG 4133, 5 µl at 1 mg/ml, n=3",++ (“++” = zone < 1 cm)
same,Average inhibition score,"[2]; S. haemolyticus SH01, 5 μl at 1 mg/ml, n = 3",+++ (“+++” = zone ≥ 1 cm)
same,Mutants observed after 24 h (mark *),[2]; S. haemolyticus SH01,*
same,Average inhibition score,"[2]; S. haemolyticus SH04, 5 μl at 1 mg/ml, n = 3",+++ (“+++” = zone ≥ 1 cm)
same,Mutants observed after 24 h (mark *),[2]; S. haemolyticus SH04,*
same,Average inhibition score,"[2]; S. haemolyticus SH09, 5 μl at 1 mg/ml, n = 3",+
same,Average inhibition score,"[2]; S. haemolyticus SH10, 5 μl at 1 mg/ml, n = 3",+++ (“+++” = zone ≥ 1 cm)
same,Mutants observed after 24 h (mark *),[2]; S. haemolyticus SH10,*
same,Average inhibition score,"[2]; S. haemolyticus SH14, 5 μl at 1 mg/ml, n = 3",++ (“++” = zone < 1 cm)
same,Mutants observed after 24 h (mark *),[2]; S. haemolyticus SH14,*
same,Average inhibition score,"[2]; S. haemolyticus SH20, 5 μl at 1 mg/ml, n = 3",++ (“++” = zone < 1 cm)
same,Mutants observed after 24 h (mark *),[2]; S. haemolyticus SH20,*
same,Average inhibition score,"[2]; S. haemolyticus SH46, 5 μl at 1 mg/ml, n = 3",++ (“++” = zone < 1 cm)
same,Mutants observed after 24 h (mark *),[2]; S. haemolyticus SH46,*
same,Average inhibition score,"[2]; S. haemolyticus SH47, 5 μl at 1 mg/ml, n = 3",+++ (“+++” = zone ≥ 1 cm)
same,Mutants observed after 24 h (mark *),[2]; S. haemolyticus SH47,*
same,Inhibition zones at three concentrations,"[2]; six S. haemolyticus strains 4068–4073, 0.04, 0.2 and 1.0 mg/ml, 5 µl spotted",some inhibition was seen only at the highest concentration
same,Average inhibition score,S. epidermidis,+
same,Average inhibition score,Staphylococcus arlettae,+
same,Average inhibition score,S. aureus [3]; S. aureus LMG 3263,+
same,Average inhibition score,S. aureus [3]; S. aureus LMG 3326,+
same,Average inhibition score,L. monocytogenes,+++ (“+++”= zone > 1 cm)
